Assay results reported in patent US11963848B2, “Impactor platform allowing freefall upon impact” (George Mason University, priority 2019, dated 2024).

Test system: C57Bl/6J wild-type mice with rmTBI
Assay: Morris Water Maze assessment for spatial memory in rmTBI mice, intranasal zinc vs vehicle
Assay type: in vivo
Protocol: Subjects were C57Bl/6J wild-type mice that were 6 weeks of age at the time of the first stressor. All mice received rmTBI delivered using a system 100/200.
For 7 days, stress groups were subject to a rotation of varied stressors, including: • 1. Deprivation of food, water, and enrichment for 8 hours. • 2. Exposure to soiled rat bedding in home cage. • 3. Exposure to bobcat urine in home cage. • 4. Forced swim in ice bath for 5 minutes. • 5. Home cage flooded with water. • 6. Home cage placed on orbital shaker for 5 minutes. • 7. Loud static noise for 1 hour. • 8. Restraint in conical Falcon tube for 1 hour.
A second week of varied stressors was administered concurrently with rmTBI. The rmTBI closed-head injury was induced by Leica One Controlled Cortical Impact device with falling platform as in system 100, causing the mouse to rotate upon impact. Anesthetized mice received one mTBI every 48 hours over the course of 7 days for a total of 4 injuries. Immediately following injury, mice were intranasally administered either zinc treatment or vehicle control (water).
Changes in behavior were also analyzed, using the Morris Water Maze assessment for spatial memory over 7 days. In this measure of learning and memory, the mouse is tested for the ability to locate a platform in a pool of water using visual cues. Days 1-6 had 3 trials, and days 2, 4 and 6 used a hidden platform for trial 3. Day 7 comprised a 24-hr probe trial.

zinc
time spent in the quadrant of the maze where the platform was present (Morris water maze) (day 6, non-stressed mice only, trending stress x zinc interaction F(1,39)=4.002, p=0.052, zinc intranasally after injury vs vehicle, FIG. 11): beneficial effect | number of platform crossings (Morris water maze) (effect only for stressed mice, stress x zinc interaction F(1,39)=4.207, p=0.047, zinc intranasally after injury vs vehicle, FIG. 10): significantly increased | latency in locating the maze platform (Morris water maze) (stressed and non-stressed, zinc intranasally immediately after each injury vs vehicle control (water), F(1,39)=2.184, p=0.147, FIG. 9): did not differ
